# The source made the active and inactive calls. No cut-off for these calls is given here.
# How the values were obtained:
# Mus musculus [1] = assay: Anxiolytic effect in ICR mouse assessed as increase in number of entries on open arm at 15 mg/kg, ip administered 1 hr before by elevated plus-maze test; format: functional; settings: route intraperitoneal
# Mus musculus [2] = assay: Anxiolytic effect in ICR mouse assessed as increase in time spent on open arm at 15 mg/kg, ip administered 1 hr before by elevated plus-maze test; format: functional; settings: route intraperitoneal
# Mus musculus [3] = assay: Anxiolytic effect in ICR mouse assessed as increase in entries of open arm at 1.0 mg/kg, ip administered 1 hr before by elevated plus-maze test; format: functional, organism-based; design: dose 1 mg/kg
# Mus musculus [4] = assay: Anxiolytic effect in ICR mouse assessed as increase in time spent on open arm at 1.0 mg/kg, ip administered 1 hr before by elevated plus-maze test; format: functional, organism-based; design: dose 1 mg/kg
# Mus musculus [5] = assay: Anxiolytic effect in ICR mouse assessed as […] in entries of open arm at 2.0 mg/kg, ip administered 1 hr before by elevated plus-maze test; format: functional, organism-based; design: dose 2 mg/kg
# Mus musculus [6] = assay: Anxiolytic effect in ICR mouse assessed as […] in time spent on open arm at 2.0 mg/kg, ip administered 1 hr before by elevated plus-maze test; format: functional, organism-based; design: dose 2 mg/kg
SMILES,Activity (Mus musculus [1]) [%],Activity (Mus musculus [2]) [%],further results
COC(=O)CC[C@H]1[C@]2(C)CC[C@@]3(C(=O)OC)[C@]4(O)CC(C)=CC[C@]4(C)CC[C@]3(C)[C@H]2[C@H](O)[C@H](O)[C@]1(CO)[C@@H](C)O,61.8,76.8,–
COC(=O)[C@@]12CC[C@@]3(C)[C@@H]4C=CC(=O)OC[C@]4([C@@H](C)O)[C@@H](O)[C@@H](O)[C@@H]3[C@@]1(C)CC[C@@]1(C)CC=C(C)C[C@]12O [GALPHIMINE A],76.8,68.3,–
COC(=O)[C@@]12CC[C@@]3(C)[C@@H]4C=CC(=O)OC[C@]4([C@@H](C)O)C[C@@H](O)[C@@H]3[C@@]1(C)CC[C@@]1(C)CC=C(C)C[C@]12O [GALPHIMINE B],72.5,76.3,–
CN1C(=O)CN=C(c2ccccc2)c2cc(Cl)ccc21,–,–,Activity (Mus musculus [3]): Active; Activity (Mus musculus [4]): Active
C=C(C)[C@@H]1[C@H]2OC(=O)[C@@H]1[C@]1(O)C[C@H]3OC34C(=O)O[C@H]2[C@@]41C.CC(C)(O)[C@@H]1[C@H]2OC(=O)[C@@H]1[C@]1(O)C[C@H]3OC34C(=O)O[C@H]2[C@@]41C (stereo not given in full),–,–,Activity (Mus musculus [5]): Active; Activity (Mus musculus [6]): Active
